In patent US10513521B2, “Compositions and methods for inhibiting BMP” (The Brigham and Women's Hospital, Inc., priority 2014, dated 2019) one finds IC50 data, which are given here for 10 molecules.

Values joined by “and” are separate entries in the source; they are usually repeats but may differ in a detail not shown here. Equal entries are not always repeated.

Test [1] can be described thus: Cell-based assay, TGFb1 (Cell IC50).
The next test concerns the target T1, ALK1 (Bos taurus, UniProt A4FUX2).
T1 construct: The BAOEC cell line was employed for the measurement of ALK1 activity using BMP9 as the agonist; host or cells: BAOEC (bovine aortic endothelial cells)
T1 sequence (A4FUX2 23-503): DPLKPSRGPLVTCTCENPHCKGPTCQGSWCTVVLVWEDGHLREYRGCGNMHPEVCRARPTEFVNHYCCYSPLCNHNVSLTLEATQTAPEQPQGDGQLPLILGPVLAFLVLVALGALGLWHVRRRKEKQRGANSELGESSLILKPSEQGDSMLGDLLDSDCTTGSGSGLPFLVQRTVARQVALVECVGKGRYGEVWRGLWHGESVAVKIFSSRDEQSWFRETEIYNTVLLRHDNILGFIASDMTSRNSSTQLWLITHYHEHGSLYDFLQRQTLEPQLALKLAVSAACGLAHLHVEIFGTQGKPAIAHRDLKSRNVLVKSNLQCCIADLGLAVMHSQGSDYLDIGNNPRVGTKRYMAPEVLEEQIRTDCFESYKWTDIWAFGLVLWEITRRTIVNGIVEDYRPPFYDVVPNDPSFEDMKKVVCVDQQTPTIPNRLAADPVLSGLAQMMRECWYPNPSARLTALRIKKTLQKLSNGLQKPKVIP
Briefly: HTRF pSMAD1 cell-based ALK1 assay (BAOEC cells, BMP9 as agonist). Also on record: species or system Bovine. As for the experimental part: 2. HTRF Cell-Based ALK1 and ALK2 Assays in 384-Well Plate Format We have developed a cell based ALK1 kinase assay and a cell-based ALK2 assay. The BAOEC cell line was employed for the measurement of ALK1 activity using BMP9 as the agonist. The C2C12 cell line was selected for the measurement of ALK2 activity using BMP6 as the agonist. The kinase specificity was defined by the specific cell line and agonist. The kinase activity was determined by the status of SMD 1/5/8 phosphorylation stimulated by the agonist.
HyClone Fetal Bovine Serum was obtained from GE healthcare life sciences (Logan, Utah). BMP6 and BMP9 were purchased from R&D System. […] The compound plates and the white solid MB assay plates were purchased from Greiner Bio-one (Monroe, N.C.).
HTRF optimization experiments were performed in 384 well plate format. […] Pre-starved cells were then plated in 384 well plate in the starvation medium (containing in 0.1% FBS). After 4 hours, compounds were added to the assay plate and incubated for 30 minutes. The assay plate was then added with BMP6 for C2C12 cells or BMP9 for BAOEC cells and incubated for 30 minutes.
HTRF assay was performed to measure the status of SMAD 1 phosphorylation after stimulated with the agonist (Table 3). This HTRF phospho SMAD1 cell assay was developed and optimized for the homogenous detection of phospho SMAD 1 levels in cells. […] The plate was incubated at room temperature for overnight.

With `C[C@@H]1CNC[C@H](C)N1c1ccc(-c2cnc3c(-c4cccc5c(C(N)=O)cccc45)cnn3c2)cc1` [Compound 10, 5-(6-(4-((2S,6R)-2,6-dimethylpiperazin-1-yl)phenyl)pyrazolo[1,5-a]pyrimidin-3-yl)-1-naphthamide], the IC50 (usually the concentration that gives 50% inhibition) was 0.353 µM in test [1]; 0.044 µM and 0.02 µM on ALK1. `N/C(=N/O)c1ccc(-c2cnn3cc(-c4ccc(N5CCNCC5)cc4)cnc23)c2ccccc12` [Compound 15, N′-hydroxy-4-(6-(4-(piperazin-1-yl)phenyl)pyrazolo[1,5-a]pyrimidin-3-yl)-1-naphthimidamide] gave a half-maximal inhibitory concentration (IC50) in test [1] of 2.66 µM. Still for that read-out and setting: under `CC(C)(CN1CCCCC1)Oc1ccc(-c2cnc3c(-c4cccc5c(C(N)=O)cccc45)cnn3c2)cc1` [Compound 18, 5-(6-(4-((2-methyl-1-(piperidin-1-yl)propan-2-yl)oxy)phenyl)pyrazolo[1,5-a]pyrimidin-3-yl)-1-naphthamide] stands 0.27 µM.

Consider `C[C@@H]1CNC[C@H](C)N1c1ccc(-c2cnc3c(-c4cccc(S(C)(=O)=O)c4)cnn3c2)cc1` [Compound 82, 6-(4-((2R,6S)-2,6-dimethylpiperazin-1-yl)phenyl)-3-(3-(methylsulfonyl)phenyl)pyrazolo[1,5-a]pyrimidine], for which, on ALK1, the IC50 amounted to 0.19 µM. This counts as sub-micromolar. As to `CC(O)c1cccc(-c2cnn3cc(-c4ccc(N5[C@H](C)CNC[C@@H]5C)cc4)cnc23)c1` (stereo partly drawn) [Compound 83, 1-(3-(6-(4-((2R,6S)-2,6-dimethylpiperazin-1-yl)phenyl)pyrazolo[5-a]pyrimidin-3-yl)phenyl)ethanol], the results for the IC50 (in test [1]; on ALK1) were 0.956 µM and 0.1 µM, respectively. On to `C[S+](=O)([O-])c1cccc(-c2cnn3cc(-c4ccc(OC5(CN6CCCCC6)COC5)cc4)cnc23)c1` [Compound 93, 3-(3-(methylsulfonyl)phenyl)-6-(4-((3-(piperidin-1-ylmethyl)oxetan-3-yl)oxy)phenyl)pyrazolo[1,5-a]pyrimidine], for which the concentration for half-maximal inhibition (IC50) came out at 100 µM in test [1] and 0.18 µM on ALK1. The molecule `C[C@@H]1CNC[C@H](C)N1c1ccc(-c2cnc3c(-c4cccc(C(C)(C)O)c4)cnn3c2)cc1` [Compound 103, 2-(3-(6-(4-((2R,6S)-2,6-dimethylpiperazin-1-yl)phenyl)pyrazolo[1,5-a]pyrimidin-3-yl)phenyl)propan-2-ol] displayed an IC50 on ALK1 of 0.014 µM. This counts as double-digit nanomolar. Same read-out and setting: under `CC[S+](=O)([O-])c1cccc(-c2cnn3cc(-c4ccc(N5[C@H](C)CNC[C@@H]5C)cc4)cnc23)c1` [Compound 104, 6-(4-((2R,6S)-2,6-dimethylpiperazin-1-yl)phenyl)-3-(3-(ethylsulfonyl)phenyl)pyrazolo[1,5-a]pyrimidine] stands 0.071 µM; under `C[S+](=O)([O-])c1cccc(-c2cnn3cc(-c4ccc(OC5(Cn6ccnc6)COC5)cc4)cnc23)c1` [Compound 105, 6-(4-((3-((1H-imidazol-1-yl)methyl)oxetan-3-yl)oxy)phenyl)-3-(3-(methylsulfonyl)phenyl)pyrazolo[1,5-a]pyrimidine], 0.14 µM; under `C[C@@H]1CNC[C@H](C)N1c1ccc(-c2cnc3c(-c4cccc([S+](=O)([O-])C5CC5)c4)cnn3c2)cc1` [Compound 111, 3-(3-(cyclopropylsulfonyl)phenyl)-6-(4-((2R,6S)-2,6-dimethylpiperazin-1-yl)phenyl)pyrazolo[1,5-a]pyrimidine], 0.85 µM.
